Source: patent USRE50282E1, “Specific modification of antibody with IgG-binding peptide” (KAGOSHIMA UNIVERSITY, priority 2015, dated 2025)
*1 amine or outer side, *2 acyl side, *3 side chain or, on linkers, in order; H or OH if unused. Where a SMILES comes first, the peptide text is derived from it. Bridges are numbered along the chain shown (N, C = ends). Where no end group is shown, it is not given here. [ ]: non-standard residue; d: D form. The star is where a group is joined. DSS = disuccinimidyl suberate, reactive NHS group, O=C(CCCCCCC(=O)*)ON1C(=O)CCC1=O; Dolaproine = CO[C@@H]([C@@H]1CCCN1)[C@@H](C)C(=O)O; Hexanoyl(6-maleimido) = O=C1C=CC(=O)N1CCCCCC(=O)*; Biotin = O=C1N[C@H]2[C@H](CS[C@H]2CCCCC(=O)*)N1; Dil = CC[C@H](C)[C@H](NC)[C@@H](CC(=O)O)OC; PABC = O=C(OCc1ccc(N[*:1])cc1)[*:2]; X1 = C[C@@H](N*)[C@@H](O)c1ccccc1; PEG5 = NCCOCCOCCOCCOCCOCCC(=O)O; Cit = NC(=O)NCCC[C@H](N)C(=O)O; NMeV = CN[C@H](C(=O)O)C(C)C

Key:
[1] = biological target: T1, human IgG (Homo sapiens, UniProt P01857); format: binding; conditions: SPR; peptides N-terminally blocked with biotinylated PEG4; NHS group hydrolysed
Experimental: 0.4 M EDC (1-ethyl-3-(3-dimethylaminopropyl)-carbodiimide) and 0.1 M sulfo-NHS (sulfo-N-hydroxysuccinimide) were mixed in equal amounts and then injected onto a CM5 sensor chip loaded in BIAcore T200 (GE Healthcare Japan Corp.) for 7 minutes at a flow rate of 10 μl/ml to activate the sensor chip. IgG was immobilized thereonto in an amount of 4000 to 5000 in terms of RU value under conditions of pH 4.0 (10 mM sodium acetate). While a HBS-EP buffer solution (0.01 M HEPES, 0.15 M NaCl, 0.005% TWEEN® 20, and 3 mM EDTA, pH 7.0) was used, binding reaction was monitored by the injection of the peptide at a concentration of 10 nM to 2 μM for 180 seconds at a flow rate of 50 μl/ml. Then, dissociation reaction was assayed by washing with a buffer solution for 600 seconds. Binding parameters were analyzed using BIAevalution T100 software.

[2] = test system: SK-BR3 cells; assay: Cell growth inhibition, Cell Counting Kit-8, 72 hours (Examples 11 and 12); format: cell-based; conditions: 0 to 500 nM
Experimental: After culture at 37° C. for 24 hours in a 5% CO2 incubator, 100 μL of a medium containing each concentration of the antibody-drug conjugate (ADC) prepared as described above was added to each well, and the cells were further cultured at 37° C. for 72 hours in a CO2 incubator. 10 μL of Cell Counting Kit-8 (Dojindo Laboratories) was added to each well. After incubation at 37° C. for 2 hours in a CO2 incubator, the absorbance at 450 nm was measured using a plate reader.
After culture at 37° C. for 24 hours in a 5% CO2 incubator, 100 μL of a medium containing each concentration of the antibody-drug conjugate (ADC) was added to each well, and the cells were further cultured at 37° C. for 72 hours in a CO2 incubator. 10 μL of Cell Counting Kit-8 (Dojindo Laboratories) was added to each well. After incubation at 37° C. for 2 hours in a CO2 incubator, the absorbance at 450 nm was measured using a plate reader.

[3] = test system: 4D5-Fc antibody; conditions: PE-labeled streptavidin; dead cells excluded by 7-AAD
Experimental: (§1) HEK293 cells were transfected with pcDNA3.1/Zeo(+) carrying scFv-Fc gene comprising anti-Her2 scFv (4D5) linked to Fc genes, using Lipofectamine 2000, and cultured for 5 days. […] The cells were washed once with PBS containing 3% BSA and suspended in 100 μL of PBS containing 3% BSA. […] The cells were washed once again with PBS containing 3% BSA and then dispersed in 100 μL of PBS containing 3% BSA.

[4] = biological target: human IgG (Homo sapiens, UniProt P01861); assay: Labeling of various IgG, SDS-PAGE and Western blot with HRP-labeled streptavidin (Example 13); conditions: human IgG4; antibody:peptide 1:4; 30 minutes
[5] = biological target: human IgG (Homo sapiens, UniProt P01859); assay: as above; conditions: human IgG2; antibody:peptide 1:4; 30 minutes
[6] = biological target: T1, human IgG; assay: as above; conditions: human monoclonal IgG1; antibody:peptide 1:4; 30 minutes
[7] = biological target: T2, human IgG Fc (Homo sapiens, UniProt P01857); assay: Cross-linking reaction with Fc analyzed by ion-exchange chromatography (Examples 6 and 7); format: biochemical; conditions: for unreacted form (peak 2) produced: 15 minutes
T2 construct: human IgG (Chugai Pharmaceutical Co., Ltd.) Fc solution; purchased Chugai Pharmaceutical Co., Ltd
Experimental: The reaction was terminated by the addition of 10 μL of 1 M Tris-HCl (pH 7.0). 50 μL of the reaction product was injected to NGC Chromatography system (Bio-Rad Laboratories, Inc.) connected with Shodex IEC SP-825 column, followed by gradient elution from a 25 mM acetate buffer (pH 4.5) to a 25 mM acetate buffer (pH 4.5) containing 1 M NaCl. The protein elution was monitored on the basis of absorbance at 215 nm. Each obtained peak was separated and subjected to molecular weight measurement by LC/MS.
20 μL of the obtained fraction of the peak was injected to Shimadzu LCMS-8030 connected with Waters ACQUITY UPLC BEH C8 (1.7 μm, 2.1 mm×100 mm) column, followed by gradient elution from 4% acetonitrile containing 0.1% formic acid to 60% acetonitrile containing 0.1% formic acid. The eluted peaks were subjected to mass spectrometry, and the masses were calculated by deconvolution from polyvalent ion peaks using analytical software.
1.0 μL (molar ratio: 1.0) of the DSG-modified IgG-binding peptide (4 mM) dissolved in DMF, prepared in Example 5 was added to 200 μL of a human IgG Fc solution prepared at pH 4.0 (25 mM acetate buffer solution), pH 5.5 (25 mM acetate buffer solution), or pH 7.0 (PBS), and the mixture was rapidly stirred and then reacted at room temperature. 1, 5, 10, or 30 minutes after the start of the reaction, the reaction was terminated by the addition of 10 μL of 1 M Tris-HCl (pH 7.0). 50 μL of the reaction product was injected to NGC Chromatography system (Bio-Rad Laboratories, Inc.) connected with Shodex IEC SP-825 column, followed by gradient elution from a 25 mM acetate buffer (pH 4.5) to a 25 mM acetate buffer (pH 4.5) containing 1 M NaCl. The protein elution was monitored on the basis of absorbance at 215 nm. On the basis of the obtained chromatogram, the percentage of each peak was calculated.

[8] = test system: SK-BR3 cells; conditions: peptide plus SA-PE label only
Experimental: as §1

[9] = biological target: T3, rabbit IgG (polyclonal antibody) (Oryctolagus cuniculus, UniProt P01870); assay: Labeling of various IgG, SDS-PAGE and Western blot with HRP-labeled streptavidin (Example 13); format: binding; conditions: antibody:peptide 1:4; 30 minutes
T3 construct: purchased Thermo Fisher Scientific Inc

[10] = biological target: T4, hIgG (Homo sapiens, UniProt P01857); assay: ELISA of reaction between labeled IgG-binding peptide and plate-adsorbed IgG (Example 4)
T4 construct: purchased Chugai Pharmaceutical Co., Ltd
Experimental: The biotinylated IgG-binding peptide modified with DSG was added at a molar ratio of 2 to hIgG (50 ng) immobilized overnight at 4° C. with a 50 ng/50 μL solution. […] The binding was detected in the same way as in (A).

[11] = test system: hIgA, bovine gelatin, or BSA; assay: ELISA of reaction between labeled IgG-binding peptide and other plate proteins (Example 4); conditions: excess of labeled peptide reagent
Experimental: A 0.1 M NaHCO3 solution containing each protein (IgG (Chugai Pharmaceutical Co., Ltd.), IgA (Athens Research & Technology, Inc.), or bovine gelatin (Wako Pure Chemical Industries, Ltd.)) (50 ng (0.33 pmol)/μl/well) was added to wells of a 96-well microplate (Nunc® MaxiSorp), and the plate was left overnight at room temperature to adsorb each protein onto the surface of the plate. […] After a lapse of 1 hour, the reaction was terminated by the addition of 1 M Tris-HCl (pH 7.0) at 3 μL/well. SA-HRP (Vector Laboratories, Inc.) diluted 2000-fold with 0.5% BSA was added thereto at 50 μL/well and reacted at room temperature for 1 hour. Then, the plate was washed five times with 0.1% PBST. Then, a TMB solution (Wako Pure Chemical Industries, Ltd.) was used in the color development of HRP. After 5-minute chromogenic reaction, the absorbance at 450 nm was measured using an ELISA plate reader (model 680 microplate reader (Bio-Rad Laboratories, Inc.)).

Chain of human IgG (Homo sapiens, UniProt P01861) (P01861 1-327 isoform P01861-1): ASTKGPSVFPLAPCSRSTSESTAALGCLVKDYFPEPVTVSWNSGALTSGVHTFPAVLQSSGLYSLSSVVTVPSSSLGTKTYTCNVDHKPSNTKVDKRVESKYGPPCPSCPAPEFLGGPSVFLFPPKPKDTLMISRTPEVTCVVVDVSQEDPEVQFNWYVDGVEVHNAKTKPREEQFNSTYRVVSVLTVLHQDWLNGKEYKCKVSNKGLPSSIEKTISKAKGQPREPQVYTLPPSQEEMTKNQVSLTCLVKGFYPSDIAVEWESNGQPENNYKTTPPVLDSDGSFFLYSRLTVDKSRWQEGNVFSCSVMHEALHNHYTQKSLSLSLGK
T3 sequence (P01870 whole entry): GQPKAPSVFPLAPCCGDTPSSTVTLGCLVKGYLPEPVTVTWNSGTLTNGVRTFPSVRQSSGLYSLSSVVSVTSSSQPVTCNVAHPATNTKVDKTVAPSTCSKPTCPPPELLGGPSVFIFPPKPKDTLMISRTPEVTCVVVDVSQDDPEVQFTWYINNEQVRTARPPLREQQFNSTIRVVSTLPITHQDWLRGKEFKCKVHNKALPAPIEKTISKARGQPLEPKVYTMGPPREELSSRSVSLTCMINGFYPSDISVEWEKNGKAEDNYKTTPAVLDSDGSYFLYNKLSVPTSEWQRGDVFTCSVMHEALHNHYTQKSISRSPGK
Chain of human IgG (Homo sapiens, UniProt P01859) (P01859 1-326 isoform P01859-1): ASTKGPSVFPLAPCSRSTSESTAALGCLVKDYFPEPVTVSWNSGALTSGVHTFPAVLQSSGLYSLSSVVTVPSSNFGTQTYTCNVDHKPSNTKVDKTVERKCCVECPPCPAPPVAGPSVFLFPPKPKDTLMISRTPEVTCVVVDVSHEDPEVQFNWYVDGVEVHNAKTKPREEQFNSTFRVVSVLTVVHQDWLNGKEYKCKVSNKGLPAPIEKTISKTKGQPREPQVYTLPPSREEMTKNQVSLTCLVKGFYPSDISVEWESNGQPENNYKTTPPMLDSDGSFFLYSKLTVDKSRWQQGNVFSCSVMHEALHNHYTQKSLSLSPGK

## CC(C)C[C@@H]1NC(=O)[C@H](CCC(=O)O)NC(=O)CNC(=O)[C@H](CCCNC(=N)N)NC(=O)[C@H](Cc2c[nH]cn2)NC(=O)[C@H](Cc2ccc(O)cc2)NC(=O)[C@H](C)NC(=O)[C@@H](NC(=O)[C@H](CC(=O)O)NC(=O)[C@@H]2CCCN2C(=O)CNC(=O)CCOCCOCCOCCOCCOCCNC(=O)CCCC[C@@H]2SC[C@@H]3NC(=O)N[C@@H]32)CSSC[C@@H](C(=O)N[C@H](C(=O)N[C@@H](Cc2ccccc2)C(=O)N[C@@H](Cc2c[nH]cn2)C(N)=O)[C@@H](C)O)NC(=O)[C@H](Cc2c[nH]c3ccccc23)NC(=O)[C@H](C(C)C)NC1=O [Type I] ({Biotin-PEG5}-GPDCAYHRGELVWCTFH-NH2; disulfide 4-14)
[1]
  ka: 1.57E+06
  kd: 0.0144

## CC[C@H](C)[C@@H]([C@@H](CC(=O)N1CCC[C@H]1[C@H](OC)[C@@H](C)C(=O)N[C@H](C)[C@@H](O)c1ccccc1)OC)N(C)C(=O)[C@@H](NC(=O)[C@H](C(C)C)N(C)C(=O)OCc1ccc(NC(=O)[C@H](CCCNC(N)=O)NC(=O)[C@@H](NC(=O)CCCCCN2C(=O)C=CC2=O)C(C)C)cc1)C(C)C [VcMMAE, maleimidocaproyl-valine-citrulline-p-aminobenzoyloxycarbonyl-monomethyl auristatin E] ({Hexanoyl(6-maleimido)}-V[Cit][PABC][NMeV]V[Dil][Dolaproine]-X1)
[2]
  concentration giving cell growth inhibition: ≥ 250 nM

## Biotin-PEG4-RGNCAYHXGQLVWCTYH-NH2 [DSG-modified IgG-binding peptide]
[3]
  fluorescence intensity compared with biotinylated anti-human IgG mouse antibody: rarely differed in fluorescence intensity
[4]
  labeling of human IgG4 (band in Western blot): dark bands
[5]
  labeling of human IgG2 (band in Western blot): dark bands
[6]
  labeling of human IgG1 (band in Western blot): dark bands
[7]; excessive molar ratio 1:5, pH 4.5
  Fc with a larger number of peptides than two added: not detected
[7]; molar ratio 1:1, pH 4.5, room temperature
  unreacted form (peak 2) produced: ≤ 20%
[7]; molar ratio 1:2, pH 4.5, room temperature
  unreacted form (peak 2) produced: ≤ 10%
[7]; other pH cases (pH 5.5, pH 7.0), molar ratio 1.0
  yield of the adduct of two peptides (peak 4): 35-40%
[7]; pH 4.0, pH 5.5 and pH 7.0, molar ratio 1.0, room temperature
  part of the reaction completed within 1 minute: ≥ 90%
[7]; pH 4.0, molar ratio 1.0
  amount of the unreacted form remaining: exceeded 40%
  yield of the adduct of two peptides (peak 4): approximately 15%
[7]; pH 5.5 and 7.0, molar ratio 1.0
  yield of the unreacted form: ~10%
[8]
  shift in fluorescence intensity without 4D5-Fc: no shift in fluorescence intensity
[9]
  labeling of rabbit polyclonal IgG (staining in Western blot): strongly stained

## labeled IgG-binding peptide modified with DSS: biotinylated IgG-binding (R8K) peptide modified with cross-linking agent, prepared as in Example 2 (GDDCAYHK(DSS)GELVWCTFH-NH2; not fully specified (N-terminus); cysteine pairing not given here; also: biotinylated)
[10]; IgG and peptide at molar ratio 1:2
  reaction time at which saturation was seen: approximately 15 minutes
[10]; molar ratios 1 to 10, 1 hour
  molar ratio at which saturation was seen: approximately 5
[11]
  binding to other proteins: not detected
